Article PMC7587356, “High-Throughput Screening for Inhibitors of the SARS-CoV-2 Protease Using a FRET-Biosensor” (Molecules, 2020)
Counter-ions that a name gives are not always drawn. Like-named read-outs stand apart in the source and are kept apart here.

Target: SARS-CoV-2 3CLpro (Severe acute respiratory syndrome coronavirus 2, UniProt P0DTD1)
Test: biochemical
Format: biochemical
Set-up: Replicate_1 / Replicate_2 / mean / mean (LOPAC_screen_w_protease): unit not given here
Conditions: for inhibition at 5 µM: 4 h
[1] = LOPAC1280 primary screen with protease, 5 µM compound, replicate 1, read-out: Replicate_1 (LOPAC_screen_w_protease)
[2] = LOPAC1280 primary screen with protease, 5 µM compound, replicate 2, read-out: Replicate_2 (LOPAC_screen_w_protease)
[3] = LOPAC1280 primary screen with protease, 5 µM compound, mean of the two replicates
[4] = sheet LOPAC_screen_w_protease, LOPAC1280 primary screen with protease, 5 µM compound, mean of the two replicates, read-out: mean
[5] = sheet LOPAC_screen_w_protease, LOPAC1280 primary screen with protease, 5 µM compound, replicate 1, read-out: Replicate_1
[6] = sheet LOPAC_screen_w_protease, LOPAC1280 primary screen with protease, 5 µM compound, replicate 2, read-out: Replicate_2
[7] = sheet LOPAC_screen_w_protease, primary screen with protease, compound at 5 µM, mean of two replicates, read-out: mean
[8] = sheet LOPAC_screen_w_protease, primary screen with protease, compound at 5 µM, replicate 1, read-out: Replicate_1
[9] = sheet LOPAC_screen_w_protease, primary screen with protease, compound at 5 µM, replicate 2, read-out: Replicate_2
[10] = sheet LOPAC_screen_w_protease, LOPAC1280 primary screen at 5 µM, with protease, mean of the two replicates
[11] = sheet LOPAC_screen_w_protease, LOPAC1280 primary screen at 5 µM, with protease, replicate 1
[12] = sheet LOPAC_screen_w_protease, LOPAC1280 primary screen at 5 µM, with protease, replicate 2
[13] = sheet LOPAC_screen_w_protease, primary screen with protease, mean of two replicates
[14] = sheet LOPAC_screen_w_protease, primary screen with protease, replicate 1
[15] = sheet LOPAC_screen_w_protease, primary screen with protease, replicate 2
[16] = LOPAC1280 primary screen with protease, 5 µM compound, mean of two replicates
[17] = LOPAC1280 primary screen with protease, 5 µM compound, replicate 1
[18] = LOPAC1280 primary screen with protease, 5 µM compound, replicate 2
[19] = sheet LOPAC_screen_w_protease, LOPAC1280 at 5 µM, mean of two replicates
[20] = sheet LOPAC_screen_w_protease, LOPAC1280 at 5 µM, replicate 1
[21] = sheet LOPAC_screen_w_protease, LOPAC1280 at 5 µM, replicate 2

C1COC(NC(C2CC2)C2CC2)=N1 [Rilmenidine hemifumarate]
inhibition at 5 µM [1]: 4.65% | inhibition at 5 µM [2]: -0.41% | mean (LOPAC_screen_w_protease) [3]: 2.121

CN(C)C(=O)Oc1cccc([N+](C)(C)C)c1 [Neostigmine bromide]
inhibition at 5 µM [4]: 5.51% | inhibition at 5 µM [5]: 4.9% | inhibition at 5 µM [6]: 6.13%

NS(=O)(=O)c1cc2c(cc1Cl)NCNS2(=O)=O [Hydrochlorothiazide]
inhibition at 5 µM (sheet LOPAC_screen_w_protease, primary screen with protease, mean of two replicates, read-out: mean): 2.22% | inhibition at 5 µM (sheet LOPAC_screen_w_protease, primary screen with protease, replicate 1, read-out: Replicate_1): 3.63% | inhibition at 5 µM (sheet LOPAC_screen_w_protease, primary screen with protease, replicate 2, read-out: Replicate_2): 0.799%

O=[N+]([O-])c1cccc2cn[nH]c12 [7-Nitroindazole]
inhibition at 5 µM [7]: 3.04% | inhibition at 5 µM [8]: 2.19% | inhibition at 5 µM [9]: 3.89%

CCN(CC)C(=O)N[C@H]1C[C@@H]2c3cccc4[nH]cc(c34)C[C@H]2N(C)C1 [R(+)-Terguride]
mean [10]: 0.4418 | Replicate_1 [11]: 0.9662 | Replicate_2 [12]: -0.08256

O=[N+]([O-])c1cc(O)c(O)c([N+](=O)[O-])c1 [3,5-Dinitrocatechol]
mean [13]: 2.373 | Replicate_1 [14]: 3.489 | Replicate_2 [15]: 1.257

CC(C)NP(=O)(NC(C)C)OP(=O)(NC(C)C)NC(C)C [Tetraisopropyl pyrophosphoramide]
inhibition at 5 µM (read-out: Replicate_1): 1.18% | inhibition at 5 µM (read-out: Replicate_2): -0.275% | inhibition at 5 µM (read-out: mean): 0.452%

CCCNC(=O)NS(=O)(=O)c1ccc(Cl)cc1 [Chlorpropamide]
inhibition at 5 µM [1]: 1.51% | inhibition at 5 µM [2]: 2.73% | mean (LOPAC_screen_w_protease) [3]: 2.118

NC(CCCP(=O)(O)O)C(=O)O (racemic) [(±)-2-Amino-5-phosphonopentanoic acid]
mean (LOPAC_screen_w_protease) [16]: 1.558 | Replicate_1 (LOPAC_screen_w_protease) [17]: 1.59 | Replicate_2 (LOPAC_screen_w_protease) [18]: 1.526

CCN(CC)CC#CCOC(=O)C(O)(c1ccccc1)C1CCCCC1 (centres unmarked) [Oxybutynin Chloride]
inhibition at 5 µM [4]: 4.78% | inhibition at 5 µM [5]: 4.91% | inhibition at 5 µM [6]: 4.65%

CC1(C)CCC=[N+]1[O-] [5,5-Dimethyl-1-pyrroline-N-oxide]
mean [19]: 1.097 | Replicate_1 [20]: 0.9422 | Replicate_2 [21]: 1.253

O=C(O)CCC(=O)N1CCC[C@H]1C(=O)O [N-Succinyl-L-proline]
mean (sheet LOPAC_screen_w_protease, LOPAC1280 primary screen at 5 µM, with protease, mean of two replicates): -1.024 | Replicate_1 [11]: 1.826 | Replicate_2 [12]: -3.873

CC(C)COCC(CN(Cc1ccccc1)c1ccccc1)N1CCCC1 (centres unmarked) [Bepridil hydrochloride]
inhibition at 5 µM (read-out: Replicate_1 (LOPAC screen with protease)): 8.81% | inhibition at 5 µM (read-out: Replicate_2 (LOPAC screen with protease)): 7.08% | inhibition at 5 µM (read-out: mean (LOPAC screen with protease)): 7.94%

Phenylbenzene-omega-phosphono-alpha-amino acid
mean [10]: 0.7227 | Replicate_1 [11]: 0.6047 | Replicate_2 [12]: 0.8406

COc1cc(C(O)CO)ccc1OS(=O)(=O)[O-].[K+] (centres unmarked) [MHPG sulfate potassium]
mean [10]: 0.6725 | Replicate_1 [11]: 2.348 | Replicate_2 [12]: -1.003

O=S1(=O)N(CCN2CC=C(c3c[nH]c4cc(F)ccc34)CC2)c2cccc3c2N1CCC3 [LY-367,265]
mean [13]: 2.318 | Replicate_1 [14]: 0.8121 | Replicate_2 [15]: 3.823

Cl.O=S(=O)(c1cccc2c(I)cccc12)N1CCCNCC1 [ML-7]
Replicate_1: 2.299 | Replicate_2: 4.928 | mean: 3.614

O=C(O)C1CCCNC1 (racemic) [(±)-Nipecotic acid]
mean [10]: 0.4335 | Replicate_1 [11]: 0.981 | Replicate_2 [12]: -0.114

CC1(C)C(=O)N(CCN2CCC(C(=O)c3ccc(F)cc3)CC2)c2ccccc21.Cl [LY-310,762 hydrochloride]
mean (LOPAC_screen_w_protease) [16]: 1.717 | Replicate_1 (LOPAC_screen_w_protease) [17]: 1.617 | Replicate_2 (LOPAC_screen_w_protease) [18]: 1.816

COC(=O)c1c(-c2cc(OC)c(OC)c(OC)c2)c2ccnc(OCc3ncccn3)c2c(=O)n1Cc1ccnc(C)c1 [T-0156]
mean [10]: 0.7124 | Replicate_1 [11]: 1.2 | Replicate_2 [12]: 0.2248

Cc1ccccc1CNc1ncnc2c1ncn2[C@@H]1O[C@H](CO)[C@@H](O)[C@H]1O [Metrifudil]
inhibition at 5 µM [4]: 4.56% | inhibition at 5 µM [5]: 4.09% | inhibition at 5 µM [6]: 5.03%

COC(=O)N1CCN(C(=O)Cc2ccc(Cl)c(Cl)c2)C(CN2CCCC2)C1.O=C(O)/C=C/C(=O)O (centres unmarked) [GR-89696 fumarate]
mean [13]: 2.523 | Replicate_1 [14]: 2.9956 | Replicate_2 [15]: 2.05

CCn1ccnc1CC1COc2ccccc2O1 (centres unmarked) [Imiloxan hydrochloride]
inhibition at 5 µM [7]: 3.1% | inhibition at 5 µM [8]: 4.11% | inhibition at 5 µM [9]: 2.09%

CC(=O)OCC1=C(C(=O)[O-])N2C(=O)[C@@H](NC(=O)CCC[C@@H](N)C(=O)[O-])[C@H]2SC1.[Zn+2] [Cephalosporin C zinc salt]
mean (sheet LOPAC_screen_w_protease, primary screen with protease, 5 µM, mean of two replicates): 0.2554 | Replicate_1 (sheet LOPAC_screen_w_protease, primary screen with protease, 5 µM, replicate 1): 0.7755 | Replicate_2 (sheet LOPAC_screen_w_protease, primary screen with protease, 5 µM, replicate 2): -0.2647

Nc1nc2ccc(Cl)cc2c2nc(-c3ccco3)nn12 [CGS-15943]
inhibition at 5 µM (read-out: Replicate_1): 3.31% | inhibition at 5 µM (read-out: Replicate_2): 3.81% | inhibition at 5 µM (read-out: mean): 3.56%

C1CNCCN1.COc1cc(C(O)CO)ccc1O.COc1cc(C(O)CO)ccc1O (centres unmarked) [MHPG piperazine]
Replicate_1: 4.5396 | Replicate_2: 3.9909 | mean: 4.265

CC1(C)CCC2=C(O1)c1ccccc1C(=O)C2=O [beta-Lapachone]
inhibition at 5 µM (read-out: Replicate_1): 0.593% | inhibition at 5 µM (read-out: Replicate_2): 0.52% | inhibition at 5 µM (read-out: mean): 0.557%

N[C@@H](Cn1ccc(=O)[nH]c1=O)C(=O)O [S(-)-Willardiine]
mean [10]: 0.8515 | Replicate_1 [11]: 0.8129 | Replicate_2 [12]: 0.89

Foliosidine
mean (sheet LOPAC_screen_w_protease, primary screen of LOPAC1280 at 5 µM with protease, mean of the two replicates): 3.597 | Replicate_2 (sheet LOPAC_screen_w_protease, primary screen of LOPAC1280 at 5 µM with protease, replicate 2): 2.375

C[C@@H]1O[C@@H]1P(=O)(O)O [Phosphomycin disodium]
inhibition at 5 µM (sheet LOPAC_screen_w_protease, primary screen with protease, 5 µM, mean of two replicates, read-out: mean): -0.258% | inhibition at 5 µM (sheet LOPAC_screen_w_protease, primary screen with protease, 5 µM, replicate 1, read-out: Replicate_1): -0.0304% | inhibition at 5 µM (sheet LOPAC_screen_w_protease, primary screen with protease, 5 µM, replicate 2, read-out: Replicate_2): -0.485%

NC(N)=NOCC[C@H](N)C(=O)O.O=S(=O)(O)O [L-Canavanine sulfate]
mean [19]: 1.293 | Replicate_1 [20]: 1.623 | Replicate_2 [21]: 0.9625

Cn1c(=O)c2c(nc(C=Cc3cccc(Cl)c3)n2C)n(C)c1=O [8-(3-Chlorostyryl)caffeine]
mean [10]: 0.7326 | Replicate_1 [11]: 1.9699 | Replicate_2 [12]: -0.5047

Cc1ccccc1N1CCN(S(=O)(=O)CC23CCC(CC2NC(=O)C(N)CCS(C)(=O)=O)C3(C)C)CC1.Cl [L-368,899]
mean [13]: 2.3895 | Replicate_1 [14]: 2.509 | Replicate_2 [15]: 2.27

C=CCN1CC[C@]23c4c5ccc(O)c4O[C@H]2/C(=N/NC(=O)c2ccccc2)CC[C@@]3(O)[C@H]1C5 [Naloxone benzoylhydrazone]
inhibition at 5 µM (read-out: Replicate_1): 2.85% | inhibition at 5 µM (read-out: Replicate_2): 4.95% | inhibition at 5 µM (read-out: mean): 3.9%

CC(C)C1C2CCC(C2)C1N.Cl (centres unmarked) [AGN 192403 hydrochloride]
mean (sheet LOPAC_screen_w_protease, primary screen with protease, compound at 5 µM, mean of two replicates): 2.735 | Replicate_1 (sheet LOPAC_screen_w_protease, primary screen with protease, compound at 5 µM, replicate 1): 2.811 | Replicate_2 (sheet LOPAC_screen_w_protease, primary screen with protease, compound at 5 µM, replicate 2): 2.66

Cl.Clc1ccc(N2CCN(Cc3c[nH]c4ncccc34)CC2)cc1 [L-745,870 hydrochloride]
mean (LOPAC_screen_w_protease) [16]: 1.375 | Replicate_1 (LOPAC_screen_w_protease) [17]: 2.129 | Replicate_2 (LOPAC_screen_w_protease) [18]: 0.6216

CC(C)(C)NCC(O)c1cc(O)cc(O)c1.CC(C)(C)NCC(O)c1cc(O)cc(O)c1.O=S(=O)(O)O (centres unmarked) [Terbutaline hemisulfate]
mean [19]: 1.161 | Replicate_1 [20]: -0.3816 | Replicate_2 [21]: 2.703

CN(C)CC[C@@H](c1ccc(Br)cc1)c1ccccn1 [(+)-Brompheniramine maleate]
inhibition at 5 µM (sheet LOPAC_screen_w_protease, LOPAC1280 at 5 µM, mean of two replicates, read-out: mean): 1.03% | inhibition at 5 µM (sheet LOPAC_screen_w_protease, LOPAC1280 at 5 µM, replicate 1, read-out: Replicate_1): 0.743% | inhibition at 5 µM (sheet LOPAC_screen_w_protease, LOPAC1280 at 5 µM, replicate 2, read-out: Replicate_2): 1.32%
